According to paper PMC11219871, “Epigenetic-based differentiation therapy for Acute Myeloid Leukemia” (Nature Communications, 2024):
Several values for one entry are separate records, joined by “and”; a condition that tells them apart may be missing. Equal values may be shown once. Read-outs that look alike come from different tables or passages of the source. Each block holds one compound with its values, some of them ahead of it.

Key:
Type in all cases: cell-based, human
HL-60 [1] = assay: Differentiation-apoptosis assay, CD11b / annexin-V / Sytox Green / myeloid markers flow cytometry; design: Cell viability (%): concentration or dose not given beside the values; conditions: for Annexin V (%) Replicate 1 / Annexin V (%) Replicate 2 / Annexin V (%) Replicate 3 / CD11b (%) Replicate 1 / CD11b (%) Replicate 2 / CD11b (%) Replicate 3: HL-60, daily 25% GI50, 48 h
Method: Next, the cells were washed twice with phosphate-buffered saline (PBS) and resuspended in 1X Binding Buffer at a concentration of 1 × 10^6 cells/mL. […] Finally, after the addition of 400 µL of 1X Binding Buffer to each tube, samples were collected on a BD FACSCanto flow cytometer (Becton Dickinson, San Jose, CA, USA) and analyzed using FlowJo software.
Then, 1 million cells (volume of 250 µL) were added and incubated for 30 min at room temperature in darkness. After 10 min incubation at room temperature with 2 mL of FACSLysing 1X, cells were centrifuged at 540 g for 5 min and washed twice with FACSBuffer. Finally, after centrifugation at 540 g for 5 min cells were resuspended in FACSBuffer.

[2] = tested on: LINE-1 DNA methylation in HL-60; assay: LINE-1 pyrosequencing; conditions: HL-60, 10 days
Method: (§1) DNA methylation of the repetitive element LINE-1 was analyzed using a pyrosequencing technique. […] Cells were washed twice with PBS, and then genomic DNA was extracted using a DNA Kit (Nucleo Spin Tissue, Cat No 74095250, Macherey-Nagel) following the manufacturer's instructions. DNA purity and concentration were measured using a NanoDrop spectrophotometer (Thermo Scientific). A 1 μg amount of genomic DNA was treated and modified using a CpGenome DNA modification Kit (Cat No S7820, Chemicon International) following the manufacturer's instructions. […] [NT]) in a final volume of 25 μL. The resulting biotinylated PCR products were immobilized to Streptavidin Sepharose ® High-Performance beads (GE Healthcare) and processed to yield high-quality ssDNA using the PyroMark Vacuum Prep Workstation (Biotage) according to the manufacturer's instructions. The pyrosequencing reactions were performed using the PyromarkTM ID (Biotage), and sequence analysis was performed using the PyroQ-CpG analysis software (Biotage).

[3] = tested on: LINE-1 DNA methylation in ML-2; assay: LINE-1 pyrosequencing; conditions: ML-2, 10 days
Method: as §1

[4] = tested on: LINE-1 DNA methylation in MOLM-13; assay: LINE-1 pyrosequencing; conditions: MOLM-13, 5 days
Method: as §1

[5] = tested on: LINE-1 DNA methylation in MV4-11; assay: LINE-1 pyrosequencing; conditions: MV4-11, 5 days
Method: as §1

HL-60 [6] = assay: Cell proliferation assay: GI50; conditions: µM for the other inhibitors, read-out: GI50
Method: (§2) Cell proliferation was analyzed using the CellTiter 96 Aqueous One Solution Cell Proliferation Assay (Promega, Madison, WI). This is a colorimetric method for determining the number of viable cells in proliferation. For the assay, suspension cells were cultured in triplicate at a density of 1 × 10^6 cells/mL in 96-well plates (100.000 cells/well, 100 µL/well), using only the 60 inner wells to avoid any border effects. […] Then, the cells were incubated with 100 μL/well of medium and 20 μL/well of CellTiter 96 Aqueous One Solution reagent for 1–3 h. […] The background absorbance was measured in wells with only cell line medium and solution reagent. First, the average of the absorbance from the control wells was subtracted from all other absorbance values. Data were calculated as the percentage of total absorbance of treated cells/absorbance of non-treated cells. The GI50 values of the different compounds were determined using non-linear regression plots made with GraphPad Prism v5 software.

ML-2 [7] = assay: Cell proliferation assay: GI50
Method: as §2

MOLM-13 [8] = assay: Cell proliferation assay: GI50
Method: as §2

MV4-11 [9] = assay: Cell proliferation assay: GI50; conditions: µM for the other inhibitors
Method: as §2

ML-2 [10] = assay: Differentiation-apoptosis assay, CD11b / annexin-V / Sytox Green / myeloid markers flow cytometry; design: Cell viability: concentration or dose not given beside the values; conditions: ML-2, 48 h; replicates (Fig 4A)
Method: (§3) Next, the cells were washed twice with phosphate-buffered saline (PBS) and resuspended in 1X Binding Buffer at a concentration of 1 × 10^6 cells/mL. An 8-µL aliquot of APC-CD11b (BD Pharmingen, Franklin Lakes, NJ, USA) and 1 µL of FITC annexin-V (AV) (BD Pharmingen, Franklin Lakes, NJ, USA) antibodies were added and incubated for 15 min at room temperature in the dark. Finally, after the addition of 400 µL of 1X Binding Buffer to each tube, samples were collected on a BD FACSCanto flow cytometer (Becton Dickinson, San Jose, CA, USA) and analyzed using FlowJo software.
(§4) For the rest of experiments, the mix of antibodies (2 µL of BV786-CD13, Cat No, 744748 BD; 1 µL of diluted 1:10 antibody of PB-HLADR, Cat No 307633, Biolegend; 5 µL of APCH7-CD14, Cat No 641394, BD) was added to 10 µL of Brilliant Stain Buffer Plus (Becton Dickinson, San Jose, CA, USA). Then, 1 million cells (volume of 250 µL) were added and incubated for 30 min at room temperature in darkness. After 10 min incubation at room temperature with 2 mL of FACSLysing 1X, cells were centrifuged at 540 g for 5 min and washed twice with FACSBuffer. Finally, after centrifugation at 540 g for 5 min cells were resuspended in FACSBuffer.

MOLM-13 [11] = assay: as above; design: Cell viability (%): concentration or dose not given beside the values; conditions: MOLM-13, 48 h treatment, replicates 1-3 (Suppl. Fig. 5A)
Method: as §3, §4

MV4-11 [12] = assay: as above; design: Cell viability (%): concentration or dose not given beside the values; conditions: MV4-11, 48 h treatment, replicates 1-3 (Suppl. Fig. 5A)
Method: as §3, §4

[13] = HL-60, 48 h treatment, replicates 1-3 (Suppl. Fig. 5A)

SMILES: COc1cc2c(cc1OCCCN1CCCC1)N=C(N)C21CCC1 [Compound A-366, A-366, reference compound]
Annexin V (%) Replicate 1 (HL-60 [1]): 1.45%
Annexin V (%) Replicate 2 (HL-60 [1]): 1.05%
Annexin V (%) Replicate 3 (HL-60 [1]): 1.10%
CD11b (%) Replicate 1 (HL-60 [1]): 9.70%
CD11b (%) Replicate 2 (HL-60 [1]): 5.40%
CD11b (%) Replicate 3 (HL-60 [1]): 4.85%

SMILES: Nc1ncn([C@H]2C[C@H](O)[C@@H](CO)O2)c(=O)n1 [Decitabine, reference compound]
Annexin V (%) Replicate 1 (HL-60 [1]): 4.10%
Annexin V (%) Replicate 2 (HL-60 [1]): 3.17%
Annexin V (%) Replicate 3 (HL-60 [1]): 2.48%
CD11b (%) Replicate 1 (HL-60 [1]): 7.50%
CD11b (%) Replicate 2 (HL-60 [1]): 9.90%
CD11b (%) Replicate 3 (HL-60 [1]): 9.03%
LINE-1 methylation (%) CG Position 1 [2]: 35% and 39%
LINE-1 methylation (%) CG Position 2 [2]: 32% and 40%
LINE-1 methylation (%) CG Position 3 [2]: 43% and 55%
LINE-1 methylation (%) CG Position 4 [2]: 44% and 52%
LINE-1 methylation (%) CG Position 5 [2]: 33% and 37%
LINE-1 methylation (%) CG Position 1 [3]: 36% and 34%
LINE-1 methylation (%) CG Position 2 [3]: 39% and 33%
LINE-1 methylation (%) CG Position 3 [3]: 42%
LINE-1 methylation (%) CG Position 4 [3]: 41% and 39%
LINE-1 methylation (%) CG Position 5 [3]: 32% and 28%
LINE-1 methylation (%) CG Position 1 [4]: 36% and 38%
LINE-1 methylation (%) CG Position 2 [4]: 37% and 43%
LINE-1 methylation (%) CG Position 3 [4]: 48% and 46%
LINE-1 methylation (%) CG Position 4 [4]: 46% and 54%
LINE-1 methylation (%) CG Position 5 [4]: 37% and 35%
LINE-1 methylation (%) CG Position 1 [5]: 53% and 47%
LINE-1 methylation (%) CG Position 2 [5]: 50% and 54%
LINE-1 methylation (%) CG Position 3 [5]: 53% and 55%
LINE-1 methylation (%) CG Position 4 [5]: 55% and 53%
LINE-1 methylation (%) CG Position 5 [5]: 43% and 45%

GI50 (HL-60 [6]; HL-60, replicates 1-3): 8.3 µM and 7.3 µM
GI50 (HL-60 [6]; Homo sapiens, HL-60, HL-60, replicates 1-3): 7.8 µM
GI50 (MOLM-13 [8]; Homo sapiens, MOLM-13, 48 h): 2.4 µM
GI50 (MOLM-13 [8]; Homo sapiens, MOLM-13, MOLM-13, replicates 1-3, µM for the other inhibitors): 2.6 µM
GI50 (MOLM-13 [8]; MOLM-13, replicates 1-3, µM for the other inhibitors): 2 µM
GI50 (MV4-11 [9]; Homo sapiens, MV4-11, MV4-11, replicates 1-3): 3.3 µM
GI50 (MV4-11 [9]; MV4-11, replicates 1-3): 2.8 µM and 3 µM
SMILES: Nc1ccccc1NC(=O)c1ccc(CNC(=O)OCc2cccnc2)cc1 [Entinostat, reference compound]
GI50 (ML-2 [7]; Homo sapiens, ML-2, 48 h): 9.1 µM
GI50 (ML-2 [7]; Homo sapiens, ML-2, ML-2, replicates 1-3, µM for the other inhibitors): 6.6 µM
GI50 (ML-2 [7]; ML-2, replicates 1-3, µM for the other inhibitors): 10.9 µM and 9.8 µM
CD11b (%) (HL-60 [1]; [13]): 32.6% and 37.2% and 30.1%
Cell viability (%) (HL-60 [1]; [13]): 38.4% and 38.5% and 40.7%
CD11b (ML-2 [10]): 25.1% and 39.8% and 36.7%
Cell viability (ML-2 [10]): 59.1% and 65.7% and 58.8%
CD11b (%) (MOLM-13 [11]): 76.1% and 83.2% and 84.3%
Cell viability (%) (MOLM-13 [11]): 47.7% and 56.4% and 56.1%
CD11b (%) (MV4-11 [12]): 41.0% and 45.6% and 43.2%
Cell viability (%) (MV4-11 [12]): 35.1% and 39.2% and 39.7%
